Publication PMC11852235, “Discovery of Effective Inhibitors Against Phosphodiesterase 9, a Potential Therapeutic Target of Alzheimer’s Disease with Antioxidant Capacities” (Antioxidants, 2025)
Where “and” joins values, the source holds several entries; their conditions need not be identical. Identical values can stand only once. Like-named read-outs stand apart in the source and are kept apart here.

Columns and labels:
[1] = target: T1, PDE9 (catalytic domain of PDE9A2) (Homo sapiens, UniProt O76083); experiment: Enzymatic assay against PDE9 (3H-cGMP hydrolysis, scintillation counting); assay type: biochemical; settings: for inhibition at 0.01 µM: at a concentration of 0.01 μM
T1 construct: PDE9 recombinant catalytic domain (amino acid 181–506); made in house; host or cells: E. coli BL21 (Codonplus)
T1 sequence (O76083 241-566): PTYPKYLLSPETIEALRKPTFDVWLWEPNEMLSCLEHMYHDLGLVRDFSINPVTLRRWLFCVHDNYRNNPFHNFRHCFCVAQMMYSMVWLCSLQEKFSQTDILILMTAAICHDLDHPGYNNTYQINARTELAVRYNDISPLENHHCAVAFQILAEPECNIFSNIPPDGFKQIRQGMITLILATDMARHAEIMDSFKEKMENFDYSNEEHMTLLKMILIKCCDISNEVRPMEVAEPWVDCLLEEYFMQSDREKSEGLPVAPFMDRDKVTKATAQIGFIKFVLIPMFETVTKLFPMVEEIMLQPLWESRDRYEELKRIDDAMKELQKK
Experimental: In brief, E. coli strain BL21 (Codonplus), which carrying with recombinant pET-PDE9A2 plasmid, was grown in LB medium (containing 100 μg/mL ampicillin and 0.4% glucose) at 37 °C until an OD600 achieved 0.6–0.8. Then, the temperature was turned down to 15 °C, and 0.1 mM iso-propyl-b-D-thiogalactopyranoside was added to LB medium to induce the expression of PDE9A2 protein. Bacteria were induced for 20 h and collected for purified PDE9A2 recombinant protein by a Ni-NTA column (Qiagen, Venlo, The Netherlands).
As for the enzymatic assays, ^3H-cGMP (20,000–30,000 cpm, GE Healthcare), the substrate for enzymatic assays against PDE9A2, were diluted in an assay buffer (containing 50 mM Tris-HCl (pH 8.0), 10 mM MgCl2, and 1 mM DTT). And then, the substrate ^3H-cGMP, catalytic domain of PDE9A2, and different concentrations of tested compounds were incubated at room temperature for 15 min. To terminate the reaction, 0.2 M ZnSO4 and 0.2 N Ba(OH)2 were added to the mixture, leaving unreacted ^3H-cGMP in the supernatant. […] Each compound was measured at a minimum of eight concentrations for the IC50 calculation and repeated at least three times.
4.Enzymatic assays against PDE9
The assay buffer contains 50 mM Tris-HCl (pH 8.0), 10 mM MgCl2 or 4 mM MnCl2, 1 mM DTT, and 10-20 nM 3H-cGMP (15000−30000 cpm/assay, CPM control). The reaction was carried out at room temperature for 15 min and then terminated by addition of 0.2 M ZnSO4. The reaction product 3H-GMP was precipitated out by […], whereas unreacted 3H-cGMP remained in the supernatant. The radioactivity in the supernatant was measured in 2.5 […]
(CPMenzyme). For the measurement of IC50 of inhibitors, at least seven concentrations of inhibitors were used in the presence of 3H-cGMP. The enzyme concentration in a range of 10− 100 ng/mL, which hydrolyzed 50- 70% of the substrate, was chosen for each inhibitory assay. The radioactivity was recorded as CPMinhibitor. The IC50 values for PDE9 were calculated using a nonlinear regression analysis.
Inhibition = […] × 100%

[2] = Antioxidant activity, ORAC-FL method; settings: Trolox as standard
Experimental: The modified Oxygen Radical Absorbance Capacity Fluorescein (ORAC-FL) method was used for antioxidant activity test. In brief, the mixture of test compounds (20 μL) and fluorescein (120 μL, final concentration of 150 nM) was added into a black 96-well plate and incubated for 15 min at 37 °C. Then, 60 μL of 2,2′-azobis(2-amidinopropane) dihydrochloride (AAPH) solution (12 mM) was added rapidly to induce the reaction. The fluorescence with an excitation wavelength of 485 nm and emission at 535 nm was measured in Spectrafluor Plus plate reader (Tecan, Crailsheim, Germany) every minute for 4 h. Integration of the area under the curve (AUC) was […] 1 to 8 μM Trolox was used as a standard. Each compound was tested at 1–10 μM at least in three independent assays. The ORAC-FL values of each compound were calculated according to Equation (1) and expressed as Trolox equivalents.(1) ORAC-FL value=AUCsample−AUCblank/AUCTrolox−AUCblank×ConcentrationTrolox/Concentrationsample

[3] = 100 nM, read-out: Inhibition (PDE9 dose-response, single runs)
[4] = 200 nM, read-out: Inhibition (PDE9 dose-response, single runs)
[5] = 400 nM, read-out: Inhibition (PDE9 dose-response, single runs)
[6] = 800 nM, read-out: Inhibition (PDE9 dose-response, single runs)
[7] = 1600 nM, read-out: Inhibition (PDE9 dose-response, single runs)
[8] = 0.25 h, at a concentration of 0.1 μM, read-out: Inhibition ratio against PDE9
[9] = 0.25 h, read-out: Inhibition ratio against PDE9
[10] = 6.25 nM, read-out: Inhibition (PDE9 dose-response, single runs)
[11] = 25 nM, read-out: Inhibition (PDE9 dose-response, single runs)
[12] = 50 nM, read-out: Inhibition (PDE9 dose-response, single runs)

| Compound | IC50 [1] | Inhibition (PDE9 dose-response, single runs) ([1]; 6.25 nM, 0.00625 µM) | Inhibition (PDE9 dose-response, single runs) ([1]; 12.5 nM, 0.0125 µM) | Inhibition (PDE9 dose-response, single runs) ([1]; 25 nM, 0.025 µM) | Inhibition (PDE9 dose-response, single runs) ([1]; 50 nM, 0.05 µM) | Inhibition (PDE9 dose-response, single runs) ([1]; 100 nM, 0.1 µM) [%] | inhibition at 0.1 µM [1, 3] [%] | Inhibition (PDE9 dose-response, single runs) ([1]; 200 nM, 0.2 µM) [%] | inhibition at 0.2 µM [1, 4] [%] | Inhibition (PDE9 dose-response, single runs) ([1]; 400 nM, 0.4 µM) [%] | inhibition at 0.4 µM [1, 5] [%] | Inhibition (PDE9 dose-response, single runs) ([1]; 800 nM, 0.8 µM) [%] | inhibition at 0.8 µM [1, 6] [%] | Inhibition (PDE9 dose-response, single runs) ([1]; 1600 nM, 1.6 µM) [%] | inhibition at 1.6 µM [1, 7] [%] | inhibition at 0.1 µM [1, 8] [%] | inhibition at 0.01 µM [1, 9] [%] | ORAC [2] | also measured |
| --- | --- | --- | --- | --- | --- | --- | --- | --- | --- | --- | --- | --- | --- | --- | --- | --- | --- | --- | --- |
| O=c1[nH]c(NCCc2c[nH]c3ccc(O)cc23)nc2c1cnn2C1CCCC1 [Compound 17b, 1-cyclopentyl-6-((2-(5-hydroxy-1H-indol-3-yl)ethyl)amino)-1,5-dihydro-4H-pyrazolo[3,4-d]pyrimidin-4-one] | 0.0911 µM and 0.091 µM | 9.16% | 9.23% and 4.22% | 21.21% | 34.04% | 49.42 | 55.3 | 66.06 | 67.7 | 76.31 | 82.6 | 86.82 | 90.6 | 94.94 | 95.1 |  | 16 |  | inhibition at 0.00625 µM [1, 10]: 6.08%; inhibition at 0.025 µM [1, 11]: 24.1%; inhibition at 0.05 µM [1, 12]: 36.3% |
| C[C@@H](NCc1c[nH]c2ccccc12)c1nc2c(cnn2C2CCCC2)c(=O)[nH]1 [Compound 18a, (R)-6-(1-(((1H-indol-3-yl)methyl)amino)ethyl)-1-cyclopentyl-1,5-dihydro-4H-pyrazolo[3,4-d]pyrimidin-4-one] |  |  |  |  |  |  |  |  |  |  |  |  |  |  |  | ~50 | 46 | 0.60 ± 0.06 μmol of Trolox equiv/μmol tested compound |  |
| C[C@@H](NCc1c[nH]c2ccc(F)cc12)c1nc2c(cnn2C2CCCC2)c(=O)[nH]1 [Compound 18b, (R)-1-cyclopentyl-6-(1-(((5-fluoro-1H-indol-3-yl)methyl)amino)ethyl)-1,5-dihydro-4H-pyrazolo[3,4-d]pyrimidin-4-one] |  |  |  |  |  |  |  |  |  |  |  |  |  |  |  | 76 | 61 | 0.88 ± 0.08 μmol of Trolox equiv/μmol tested compound |  |
| COc1ccc2c(c1)c(CN[C@H](C)c1nc3c(cnn3C3CCCC3)c(=O)[nH]1)cn2C [Compound 18d, (R)-1-cyclopentyl-6-(1-(((5-methoxy-1-methyl-1H-indol-3-yl)methyl)amino)ethyl)-1,5-dihydro-4H-pyrazolo[3,4-d]pyrimidin-4-one] | 0.214 µM |  |  |  |  |  |  |  |  |  |  |  |  |  |  |  |  |  | Inhibition (PDE9 dose-response, single runs) ([1]; 6.4875 nM, 0.0064875 µM): 4.86% and 1.81%; Inhibition (PDE9 dose-response, single runs) ([1]; 12.975 nM, 0.012975 µM): 9.60%; inhibition at 0.012975 µM ([1]; 12.975 nM, read-out: Inhibition (PDE9 dose-response, single runs)): 4.99%; Inhibition (PDE9 dose-response, single runs) ([1]; 25.95 nM, 0.02595 µM): 11.54%; inhibition at 0.02595 µM ([1]; 25.95 nM, read-out: Inhibition (PDE9 dose-response, single runs)): 16.6%; Inhibition (PDE9 dose-response, single runs) ([1]; 51.9 nM, 0.0519 µM): 21.64%; inhibition at 0.0519 µM ([1]; 51.9 nM, read-out: Inhibition (PDE9 dose-response, single runs)): 20.2%; Inhibition (PDE9 dose-response, single runs) ([1]; 103.8 nM, 0.1038 µM): 34.81%; inhibition at 0.1038 µM ([1]; 103.8 nM, read-out: Inhibition (PDE9 dose-response, single runs)): 33.4%; Inhibition (PDE9 dose-response, single runs) ([1]; 207.6 nM, 0.2076 µM): 49.32%; inhibition at 0.2076 µM ([1]; 207.6 nM, read-out: Inhibition (PDE9 dose-response, single runs)): 54.3%; Inhibition (PDE9 dose-response, single runs) ([1]; 415.2 nM, 0.4152 µM): 80.76%; inhibition at 0.4152 µM ([1]; 415.2 nM, read-out: Inhibition (PDE9 dose-response, single runs)): 86.5%; Inhibition (PDE9 dose-response, single runs) ([1]; 830.4 nM, 0.8304 µM): 88.96%; inhibition at 0.8304 µM ([1]; 830.4 nM, read-out: Inhibition (PDE9 dose-response, single runs)): 93% |

Further lines, with some results ahead:

| IC50 [1] | Inhibition (PDE9 dose-response, single runs) ([1]; 6.25 nM, 0.00625 µM) | Inhibition (PDE9 dose-response, single runs) ([1]; 12.5 nM, 0.0125 µM) | Inhibition (PDE9 dose-response, single runs) ([1]; 25 nM, 0.025 µM) | Inhibition (PDE9 dose-response, single runs) ([1]; 50 nM, 0.05 µM) | Inhibition (PDE9 dose-response, single runs) ([1]; 100 nM, 0.1 µM) [%] | inhibition at 0.1 µM [1, 3] [%] | Inhibition (PDE9 dose-response, single runs) ([1]; 200 nM, 0.2 µM) [%] | inhibition at 0.2 µM [1, 4] [%] | Inhibition (PDE9 dose-response, single runs) ([1]; 400 nM, 0.4 µM) [%] | inhibition at 0.4 µM [1, 5] [%] | Inhibition (PDE9 dose-response, single runs) ([1]; 800 nM, 0.8 µM) [%] | inhibition at 0.8 µM [1, 6] [%] | Inhibition (PDE9 dose-response, single runs) ([1]; 1600 nM, 1.6 µM) [%] | inhibition at 1.6 µM [1, 7] [%] | inhibition at 0.1 µM [1, 8] [%] | inhibition at 0.01 µM [1, 9] [%] | Compound | ORAC [2] | also measured |
| --- | --- | --- | --- | --- | --- | --- | --- | --- | --- | --- | --- | --- | --- | --- | --- | --- | --- | --- | --- |
| 0.194 µM | -0.81% and -1.99% | 4.63% and -3.63% | -0.82% and 5.95% | -1.13% and 3.15% | 16.13 | 9.05 | 51.73 | 42.9 | 69.38 | 75.3 | 80.02 | 90.6 | 87.34 | 90.2 | < 30 |  | COc1ccc2[nH]cc(CN[C@H](C)c3nc4c(cnn4C4CCCC4)c(=O)[nH]3)c2c1 [Compound 18c, (R)-1-cyclopentyl-6-(1-(((5-methoxy-1H-indol-3-yl)methyl)amino)ethyl)-1,5-dihydro-4H-pyrazolo[3,4-d]pyrimidin-4-one] |  |  |
|  |  |  |  |  |  |  |  |  |  |  |  |  |  |  | 82 | 70 | CC(Cc1n[nH]c2ccccc12)Nc1nc2c(cnn2C2CCCC2)c(=O)[nH]1 (stereo not drawn) [Compound 17g, 6-((1-(1H-indazol-3-yl)propan-2-yl)amino)-1-cyclopentyl-1,5-dihydro-4H-pyrazolo[3,4-d]pyrimidin-4-one] | 0.17 ± 0.004 μmol of Trolox equiv/μmol tested compound |  |
|  |  |  |  |  |  |  |  |  |  |  |  |  |  |  | 69 | 65 | COc1ccc2[nH]nc(CC(C)Nc3nc4c(cnn4C4CCCC4)c(=O)[nH]3)c2c1 (stereo not drawn) [Compound 17h, 1-cyclopentyl-6-((1-(5-methoxy-1H-indazol-3-yl)propan-2-yl)amino)-1,5-dihydro-4H-pyrazolo[3,4-d]pyrimidin-4-one] | 0.22 ± 0.12 μmol of Trolox equiv/μmol tested compound |  |
| 0.089 µM | 13.00% | 26.71% | 28.77% | 37.79% | 60.91 | 61.6 | 75.64 | 77.6 | 87.67 | 90.5 | 94.30 | 96.4 | 97.54 | 108 |  | 13 | COc1ccc2[nH]cc(CC(C)Nc3nc4c(cnn4C4CCOCC4)c(=O)[nH]3)c2c1 (stereo not drawn) [Compound 17d, 6-((1-(5-methoxy-1H-indol-3-yl)propan-2-yl)amino)-1-(tetrahydro-2H-pyran-4-yl)-1,5-dihydro-4H-pyrazolo[3,4-d]pyrimidin-4-one] |  | inhibition at 0.00625 µM [1, 10]: 13.8%; inhibition at 0.0125 µM ([1]; 12.5 nM, read-out: Inhibition (PDE9 dose-response, single runs)): 34.7%; inhibition at 0.025 µM [1, 11]: 26.4%; inhibition at 0.05 µM [1, 12]: 43.8% |
|  |  |  |  |  |  |  |  |  |  |  |  |  |  |  | ~50 |  | C[C@@H](NCc1n[nH]c2ccccc12)c1nc2c(cnn2C2CCCC2)c(=O)[nH]1 [Compound 18e, (R)-6-(1-(((1H-indazol-3-yl)methyl)amino)ethyl)-1-cyclopentyl-1,5-dihydro-4H-pyrazolo[3,4-d]pyrimidin-4-one] | 0.15 ± 0.03 μmol of Trolox equiv/μmol tested compound |  |
| 0.0018 µM |  |  |  |  |  |  |  |  |  |  |  |  |  |  |  | 84 | COc1ccc2[nH]cc(CC(C)Nc3nc4c(cnn4C4CCCC4)c(=O)[nH]3)c2c1 (stereo not drawn) [Compound 17c, 1-cyclopentyl-6-((1-(5-methoxy-1H-indol-3-yl)propan-2-yl)amino)-1,5-dihydro-4H-pyrazolo[3,4-d]pyrimidin-4-one] |  |  |
